US8263649B2, “Benzofuran type derivatives, a composition comprising the same for treating or preventing cognitive dysfunction and the use thereof” (Medifron DBT Co., Ltd., priority 2006, dated 2012)

Key:
[1] = test system: HT22 mouse neuronal cell line treated with aggregated beta amyloid 25-35; assay: Inhibition test of beta amyloid toxicity (MTT); format: cell-based; conditions: HT22 cells, 25 μm aggregated beta amyloid 25-35, 18 hours
Description: To determine the inhibitory activity of the compounds prepared in Examples on beta-amyloid toxicity, following test was performed according to the procedure disclosed in the literature (Gillardon, F. et al., Brain Research, 706(1), pp. 169-172, 1996).
HT22 mouse neuronal cell line was incubated in DMEM (Dulbecco's Modified Eagle's Medium, Gibco-BRL) medium supplemented with 10% FBS (Fetal Bovine Serum, Hyclone) and 1% penicillin/streptomycin (Sigma Co.). Prior to test, HT22 cell was incubated on 96 well plates with a density of 5×10^3 cell/well and further incubated in serum free DMEM medium for 1 hour before the treatment of test sample. Various concentration of compounds prepared in Examples used as a test sample was added thereto and incubated for 1 hour. Aggregated beta amyloid 25-35 (US peptide) was treated thereto to the concentration of 25 μm and incubated for 18 hours to induce cell necrosis. 5 mg/ml of MTT (3-(4,5-dimethyl-2-thiazolyl)-2,5-diphenyl-2H-tetrazolium bromide) solution was added each well with 15 μl/well and the well was incubated for 4 hours. Dissolving buffer solution (10% SDS, 50% dimethyl formamide, pH 4.7) was added to each well with 100 μl/well and reacted for overnight. 18 hours after the reaction, the absorbance of solution was determined by microplate reader (SAFIRE, TECAN) at 570 nm/630 nm wavelength (Gillardon, F. et al., Brain Research, 706(1) pp 169-172, 1996).

beta amyloid 1-42 = target: T1, beta amyloid 1-42 (Homo sapiens, UniProt P05067); assay: Inhibition test of beta amyloid aggregation (Thioflavin T fluorescence); format: biochemical; conditions: FIG. 1
T1 construct: Synthetic beta amyloid 1-42 (BACHEM); purchased BACHEM; host or cells: synthetic peptide
Description: Synthetic beta amyloid 1-42 (BACHEM) was dissolved in DMSO in order to 250 μm solution and diluted with PBS into 1/10 on fluorescent black plate to induce aggregation. By comparing with inhibition activity of the tanshinone compounds prepared in Example 1 on beta amyloid aggregation, the test sample showing more than 50% inhibition activity at 10 μg/ml was chosen to use and added to react for 1 hour at room temperature. ThT (Thioflavin T) was diluted with 50 mM glycine buffer solution and the diluted solution was added to each well by 150 μl/well. The absorbance was determined by microplate reader (SAFIRE, TECAN) at 450 nm excitation wavelength/480 nm emission wavelength and the inhibition activity of the test sample on beta amyloid aggregation was transformed into IC50.

T1 sequence (P05067 672-713): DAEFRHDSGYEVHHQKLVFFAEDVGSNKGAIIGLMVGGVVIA

Row | Structure (SMILES) | melting point | inhibitory effect on the aggregation of beta amyloid (beta amyloid 1-42) | inhibition effect on beta-amyloid toxicity [1]
1 | COCCCc1ccc2oc(-c3ccc(O)c(OC)c3)c(SC)c2c1 [Compound 15b, 2-methoxy-4-[5-(3-methoxy-propyl)-3-methylsulfanyl-benzofuran-2yl]-phenol] |  | potent inhibition effect | potent inhibition effect
2 | COCCc1ccc2oc(-c3ccc(OC)c(OC)c3)c(SC)c2c1 [Compound 17a, 2-(3,4-dimethoxy-phenyl)-5-(2-methoxy-ethyl)-3-methylsulfanyl-benzofuran] | 61 °C |  | 
3 | COCCc1ccc2oc(-c3ccc(OC)c(OC)c3)cc2c1 [Compound 18a, 2-(3,4-dimethoxy-phenyl)-5-(2-methoxy-ethyl)-benzofuran] | 81 °C |  | 
4 | COC(=O)Cc1ccc2oc(-c3ccc(OC)c(OC)c3)cc2c1 [Compound 32a, [2-(3,4-dimethoxyphenyl)-benzofuran-5-yl]acetic acid methyl ester] | 119 °C |  | 
5 | COc1ccc(-c2oc3ccc(CC(=O)O)cc3c2SC)cc1OC [Compound 33a, [2-(3,4-dimethoxy-phenyl)-3-methylsulfanyl-benzofuran-5-yl]-acetic acid] | 165 °C |  | 
6 | COc1ccc(-c2oc3ccc(CCO)cc3c2SC)cc1OC [Compound 39a, 2-[2-(3,4-dimethoxy-phenyl)-3-methylsulfanyl-benzofuran-5-yl]-ethanol] | 96 °C |  | 

Second part, led by results:

Row | melting point | inhibitory effect on the aggregation of beta amyloid (beta amyloid 1-42) | Structure (SMILES) | inhibition effect on beta-amyloid toxicity [1]
7 | 70 °C |  | COc1ccc(-c2oc3ccc(CC(=O)N4CCN(Cc5ccccc5)CC4)cc3c2SC)cc1OC | 
8 | 70 °C |  | COCCc1ccc2oc(-c3ccc(OCOC)c(OC)c3)c(SC)c2c1 [Compound 14a, 5-(2-methoxy-ethyl)-2-(3-methoxy-4-methoxymethoxy-phenyl)-3-methylsulfanyl-benzofuran] | 
9 | 67 °C | potent inhibition effect | COCCc1ccc2oc(-c3ccc(O)c(OC)c3)c(SC)c2c1 [Compound 15a, 2-methoxy-4-[5-(2-methoxy-ethyl)-3-methylsulfanyl-benzofuran-2-yl]-phenol] | potent inhibition effect
10 | 180 °C |  | COCCc1ccc2oc(-c3ccc(O)c(OC)c3)cc2c1 [Compound 16a, 2-methoxy-4-[5-(2-methoxy-ethyl)-benzofuran-2yl]-phenol] | 
11 | 91 °C |  | COC(=O)Cc1ccc2oc(-c3ccc(OC)c(OC)c3)c(SC)c2c1 [Compound 31a, [2-(3,4-dimethoxy-phenyl)-3-(methylsulfanyl)-benzofuran-5-yl)acetic acid methyl ester] | 
12 | 202 °C |  | COc1ccc(-c2cc3cc(CC(=O)O)ccc3o2)cc1OC [Compound 34a, [2-(3,4-dimethoxy-phenyl)-benzofuran-5-yl]-acetic acid] | 
13 | 160 °C |  | COc1ccc(-c2oc3ccc(CC(=O)N4CCN(c5ccccc5)CC4)cc3c2SC)cc1OC [Compound 37a, 2-[2-(3,4-dimethoxy-phenyl)-3-methylsulfanyl-benzofuran-5-yl)-1-(4-phenyl-piperazin-1-yl)-ethanone] | 
14 | 122 °C |  | COc1ccc(-c2cc3cc(CCO)ccc3o2)cc1OC [Compound 40a, 2-[2-(3,4-dimethoxy-phenyl)-benzofuran-5-yl]-ethanol] | 
